According to US20250034182A1, “PHOSPHOLIPID COMPOUNDS AND METHODS OF MAKING AND USING THE SAME” (priority 2021, published 2025):
Like-named read-outs stand apart in the source and are kept apart here.

Key:
Type in all cases: cell-based
[1] = tested on: Recombinant Respiratory Syncytial virus strain A2 containing the firefly luciferase reporter (RSV-Fluc) in NHBE cells; assay: RSV NHBE FLuc EC50 (Example I); conditions: human respiratory syncytial virus, 72 h, read-out: RSV NHBE FLuc EC50 (nM) (per Ex. I)
Procedure, shortened: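 NHBE primary cells (passage 2-4) treated with threefold compound dilutions and infected with RSV A2 firefly-luciferase reporter virus at MOI 0.1; 3 days at 37° C, 5% CO2. ONE-Glo luminescence normalized to uninfected and infected DMSO controls; EC50 from non-linear regression, duplicates with two technical repeats.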

[2] = HCV Replicon 1B CC50, calcein AM (Example Q); conditions: calcein AM fluorescence, read-out: HCV Replicon 1B CC50 (nM) (per Ex. Q)
Protocol: Compounds were serially diluted in ten steps of 1:3 dilutions in 384-well plates. All serial dilutions were performed in four replicates per compound within the same 384-well plate. An HCV protease inhibitor ITMN-191 at […] was added as a control of 100% inhibition of HCV replication while puromycin at 10 mM was included as a control of 100% cytotoxicity. To each well of a black polystyrene 384-well plate (Greiner Bio-one, Monroe, NC), 90 μL of cell culture medium (without Geneticin) containing 2000 suspended HCV replicon cells was added with a Biotek μFlow workstation. For compound transfer into cell culture plates, 0.4 μL of compound solution from the compound serial dilution plate was transferred to the cell culture plate on a Biomek FX workstation. The DMSO concentration in the final assay wells was 0.44%. The plates were incubated for 3 days at 37° C. with 5% CO2 and 85% humidity. The HCV replicon assay was a multiplex assay, able to assess both cytotoxicity and antireplicon activity from the same well. The CC50 assay was performed first. The media in the 384-well cell culture plate was aspirated, and the wells were washed four times with 100 μL of PBS each, using a Biotek ELX405 plate washer. A volume of 50 μL of a solution containing 400 nM calcein AM (Anaspec, Fremont, CA) in 1×PBS was added to each well of the plate with a Biotek μFlow workstation. The plate was incubated for 30 min at room temperature before the fluorescence signal (excitation 490 nm, emission 520 nm) was measured with a Perkin-Elmer Envision plate reader. The EC50 assay was performed in the same wells as the CC50 assay. The calcein-PBS solution in the 384-well cell culture plate was aspirated with a Biotek ELX405 plate washer. A volume of 20 μL of Dual-Glo luciferase buffer (Promega, Madison, WI) was added to each well of the plate with a Biotek μFlow Workstation. The plate was incubated for 10 min at room temperature. A volume of 20 μL of a solution containing a 1:100 mixture of Dual-Glo Stop & Glo substrate (Promega, Madison, WI) and Dual-Glo Stop & Glo buffer (Promega, Madison, WI) was added to each well of the plate with a Biotek μFlow Workstation. The plate was then incubated at room temperature for 10 min before the luminescence signal was measured with a Perkin-Elmer Envision Plate Reader.

[3] = tested on: dengue virus type 2 in Huh7 hepatoblastoma cells; assay: Dengue Virus-2 Huh-7 EC50 (Example W); conditions: MOI of 0.07, CPE, neutral red dye, read-out: Dengue Virus-2 Huh-7 EC50 (nM) (per Ex. W)
Procedure, shortened: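 Huh7 monolayers were infected with dengue virus type 2 (about 2000 CCID50/well, MOI 0.07) in the presence of eight 3-fold compound dilutions, top 50 μg/mL, and incubated until >80% CPE. Viability by neutral red uptake at 540 nm, normalized to virus controls; EC50 and CC50 by linear regression.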

| SMILES | EC50 [1] [nM] | CC50 at 3 days ([2]; HCV replicon cells (1B)) [nM] | EC50 [3] [nM] | CC50 at 3 days ([2]; HCV replicon cells) [nM] |
| --- | --- | --- | --- | --- |
| CCCCCCCCCCCCCCCCCCOC[C@H](COP(=O)(O)OC[C@@]1(C#N)O[C@@H](c2ccc3c(N)ncnn23)[C@H](O)[C@@H]1O)OCc1ccc(C#N)cc1OC [Compound 73, ((2R,3S,4R)-5-(4-aminopyrrolo[2,1-f][1,2,4]triazin-7-yl)-2-cyano-3,4-dihydroxytetrahydrofuran-2-yl)methyl ((R)-2-((4-cyano-2-methoxybenzyl)oxy)-3-(octadecyloxy)propyl) hydrogen phosphate] | 25 | > 44400 | 9500 | – |
| CCCCCCCCCCCCCCCCC[C@H](COP(=O)(O)OC[C@@]1(C#N)O[C@@H](c2ccc3c(N)ncnn23)[C@H](O)[C@@H]1O)OCc1cc(F)cc(C#N)c1 [Compound 36, ((2R,3S,4R,5S)-5-(4-aminopyrrolo[2,1-f][1,2,4]triazin-7-yl)-2-cyano-3,4-dihydroxytetrahydrofuran-2-yl)methyl ((R)-2-((3-cyano-5-fluorobenzyl)oxy)nonadecyl) hydrogen phosphate] | 121 | – | 10000 | > 44400 |
| CCCCCCCCCCCCCCCCCCCC[C@H](COP(=O)(O)OC[C@@]1(C#N)O[C@@H](c2ccc3c(N)ncnn23)[C@H](O)[C@@H]1O)Oc1cccc(C#N)c1 [Compound 51, ((2R,3S,4R,5S)-5-(4-aminopyrrolo[2,1-f][1,2,4]triazin-7-yl)-2-cyano-3,4-dihydroxytetrahydrofuran-2-yl)methyl ((R)-2-(3-cyanophenoxy)docosyl) hydrogen phosphate] | 66 | > 44400 | 11000 | – |
| CCCCCCCCCCCCCCCCCOC[C@H](COP(=O)(O)OC[C@@]1(C#N)O[C@@H](c2ccc3c(N)ncnn23)[C@H](O)[C@@H]1O)OCc1cc(F)cc(C#N)c1 [Compound 53, ((2R,3S,4R,5S)-5-(4-aminopyrrolo[2,1-f][1,2,4]triazin-7-yl)-2-cyano-3,4-dihydroxytetrahydrofuran-2-yl)methyl ((R)-2-((3-cyano-5-fluorobenzyl)oxy)-3-(heptadecyloxy)propyl) hydrogen phosphate] | 69 | > 44400 | 9900 | – |
